# Data reported in article PMC7891582 (Journal of Clinical Pharmacology, 2020).
# pIC50: −log10 of the molar value. “Also recorded” adds a separate entry of the source.
# Tests used:
# [1] = cited from earlier work
# [2] = Safety in omeprazole/digoxin study; assay type: in vivo, human
# P‐gp [3] = target: P‐gp (Homo sapiens, UniProt P08183); assay: Digoxin; assay type: in vivo
# CYP2C19 [4] = target: CYP2C19 (Homo sapiens, UniProt P33261); assay: Omeprazole
# CYP3A [5] = assay: Midazolam; assay type: in vivo, human
# CYP2C9 [6] = conditions: read-out: IC50 for CYP2C9 inhibition; in vitro; ref unpublished in vitro studies; cited from earlier work
# CYP2C9 [7] = target: CYP2C9 (Homo sapiens, UniProt P11712); assay: Tolbutamide; assay type: in vivo
# P‐gp [8] = conditions: cited from earlier work
# CYP3A [9] = conditions: human liver microsome, concentration-dependent; ref unpublished data; cited from earlier work
# [10] = Safety in midazolam/tolbutamide study; assay type: in vivo, human
# CYP2C19 [11] = conditions: in vitro data; ref unpublished in vitro studies; cited from earlier work
# CYP3A [12] = conditions: ref unpublished in vitro studies, cited from earlier work
# [13] = coadministered with pexidartinib
# [14] = coadministered with pexidartinib 1800 mg
# [15] = after multiple doses of pexidartinib
# [16] = coadministration with single dose of pexidartinib
# [17] = coadministered with single dose pexidartinib
# [18] = omeprazole plus pexidartinib vs omeprazole only
# Chain of P‐gp (Homo sapiens, UniProt P08183) (P08183 whole entry): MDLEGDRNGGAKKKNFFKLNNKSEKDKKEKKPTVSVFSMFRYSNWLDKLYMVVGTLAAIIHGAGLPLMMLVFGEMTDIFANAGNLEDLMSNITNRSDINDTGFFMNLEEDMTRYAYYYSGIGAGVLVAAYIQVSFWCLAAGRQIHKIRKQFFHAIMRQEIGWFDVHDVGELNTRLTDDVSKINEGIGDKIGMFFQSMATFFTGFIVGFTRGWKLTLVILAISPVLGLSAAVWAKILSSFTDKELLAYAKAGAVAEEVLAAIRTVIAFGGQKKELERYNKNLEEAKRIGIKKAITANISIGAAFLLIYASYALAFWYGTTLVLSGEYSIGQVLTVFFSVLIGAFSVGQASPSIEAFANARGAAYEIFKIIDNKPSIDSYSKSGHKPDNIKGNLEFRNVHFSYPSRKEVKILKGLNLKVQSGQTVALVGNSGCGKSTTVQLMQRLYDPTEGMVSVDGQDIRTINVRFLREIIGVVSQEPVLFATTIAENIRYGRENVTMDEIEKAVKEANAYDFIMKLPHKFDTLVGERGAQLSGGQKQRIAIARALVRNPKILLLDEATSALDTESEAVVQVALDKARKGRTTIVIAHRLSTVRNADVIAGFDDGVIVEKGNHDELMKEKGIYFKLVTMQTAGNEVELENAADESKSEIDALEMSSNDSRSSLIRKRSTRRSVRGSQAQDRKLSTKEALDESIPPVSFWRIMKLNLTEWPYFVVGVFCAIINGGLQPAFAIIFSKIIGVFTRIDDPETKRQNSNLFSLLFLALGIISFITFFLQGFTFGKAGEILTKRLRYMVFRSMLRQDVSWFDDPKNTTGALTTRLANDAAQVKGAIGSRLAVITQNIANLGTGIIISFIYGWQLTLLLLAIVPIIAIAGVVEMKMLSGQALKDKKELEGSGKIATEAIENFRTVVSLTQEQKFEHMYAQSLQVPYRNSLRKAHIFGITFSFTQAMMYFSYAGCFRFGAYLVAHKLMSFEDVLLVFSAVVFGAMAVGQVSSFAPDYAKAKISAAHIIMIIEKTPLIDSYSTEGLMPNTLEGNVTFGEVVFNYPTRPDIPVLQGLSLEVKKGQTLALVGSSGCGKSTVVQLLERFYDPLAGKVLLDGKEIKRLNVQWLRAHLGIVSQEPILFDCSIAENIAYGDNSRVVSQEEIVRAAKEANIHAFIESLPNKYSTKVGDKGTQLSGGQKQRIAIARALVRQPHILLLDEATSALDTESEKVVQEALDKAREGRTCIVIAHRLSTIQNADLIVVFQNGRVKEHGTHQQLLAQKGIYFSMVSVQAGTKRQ
# Chain of CYP2C19 (Homo sapiens, UniProt P33261) (P33261 whole entry): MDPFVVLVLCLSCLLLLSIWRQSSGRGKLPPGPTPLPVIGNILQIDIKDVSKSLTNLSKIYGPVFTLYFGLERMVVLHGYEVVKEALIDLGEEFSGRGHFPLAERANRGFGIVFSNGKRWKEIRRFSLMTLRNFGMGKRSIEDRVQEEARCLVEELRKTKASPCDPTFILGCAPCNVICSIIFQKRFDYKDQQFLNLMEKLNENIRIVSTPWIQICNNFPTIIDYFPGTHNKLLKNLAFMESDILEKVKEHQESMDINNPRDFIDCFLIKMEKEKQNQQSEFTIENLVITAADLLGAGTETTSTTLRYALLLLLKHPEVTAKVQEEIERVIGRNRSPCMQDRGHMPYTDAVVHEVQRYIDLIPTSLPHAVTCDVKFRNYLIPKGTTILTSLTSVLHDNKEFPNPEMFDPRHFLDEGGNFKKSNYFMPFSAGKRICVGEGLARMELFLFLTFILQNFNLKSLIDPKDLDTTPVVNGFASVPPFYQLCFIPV
# Chain of CYP2C9 (Homo sapiens, UniProt P11712) (P11712 whole entry): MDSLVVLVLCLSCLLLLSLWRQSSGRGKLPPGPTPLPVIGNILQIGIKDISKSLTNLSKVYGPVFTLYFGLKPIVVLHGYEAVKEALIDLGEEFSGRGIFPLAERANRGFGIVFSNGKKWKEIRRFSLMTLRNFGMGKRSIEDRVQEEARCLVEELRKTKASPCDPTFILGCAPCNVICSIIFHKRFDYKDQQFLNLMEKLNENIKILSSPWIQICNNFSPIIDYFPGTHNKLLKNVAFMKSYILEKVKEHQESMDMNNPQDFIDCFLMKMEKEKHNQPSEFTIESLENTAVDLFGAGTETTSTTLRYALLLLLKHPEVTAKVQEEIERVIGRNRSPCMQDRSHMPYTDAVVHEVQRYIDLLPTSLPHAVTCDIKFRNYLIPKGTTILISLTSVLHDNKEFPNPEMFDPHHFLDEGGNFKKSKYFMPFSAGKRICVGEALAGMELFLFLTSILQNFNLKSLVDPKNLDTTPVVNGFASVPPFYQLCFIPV
smiles,measurement,setting,value
FC(F)(F)c1ccc(CNc2ccc(Cc3c[nH]c4ncc(Cl)cc34)cn2)cn1 [pexidartinib],delay of tmax with high-fat meal,[1],1.5 h
same,effect of high-fat meal on exposure,[1],doubles
same,elimination half-life,[1],26.6 h
same,accumulation ratio (exposure vs first dose),"[1]; multiple dosing, twice-daily regimen",≈ 3.6 times
same,tmax,[1]; oral administration,≈ 2.5 hours
same,TEAEs considered related to pexidartinib (all pruritus),[2]; 20 healthy subjects,Three
same,intensity of TEAEs,[2]; 20 healthy subjects,mild (grade 1)
same,subjects who experienced a TEAE,"[2]; 20 healthy subjects, single dose 1800 mg",40%
same,tolerability,[2]; omeprazole/digoxin study,generally well tolerated
same,in vivo effect on P-gp transport,P‐gp [3]; digoxin probe,does not significantly affect
same,in vivo effect on CYP2C19-mediated metabolism,CYP2C19 [4]; omeprazole probe,does not significantly affect
same,in vivo effect on CYP3A (FDA criteria),CYP3A [5]; midazolam probe,moderate inducer
same,pIC50,CYP2C9 [6],5.43
same,in vivo effect on CYP2C9 (FDA criteria),CYP2C9 [7]; tolbutamide probe,weak inhibitor
same,time dependence of inhibitory effect on P-gp,"P‐gp [8]; in vitro data, ref unpublished in vitro studies",not time dependent
same,pIC50,"P‐gp [8]; read-out: in vitro IC50 for P-gp, preclinical data, ref data on file",4.36
same,effect on midazolam hydroxylation,CYP3A [9],activated midazolam hydroxylation
same,subjects with a grade 4 TEAE,[10]; 30 subjects with tumors,4 subjects
same,subjects with grade 3 TEAEs,[10]; 30 subjects with tumors,40%
same,subjects who discontinued treatment due to pexidartinib-related TEAEs,"[10]; drug hypersensitivity, increased blood bilirubin",7%
same,grade 4 TEAEs considered related to pexidartinib,[10]; increased bilirubin,1
same,tolerability,[10]; midazolam/tolbutamide study,generally well tolerated
same,grade 3 TEAEs considered related to pexidartinib,[10]; of 22 grade 3 TEAEs,9
same,time dependence of inhibitory effect on CYP2C19,CYP2C19 [11],not time dependent
same,type of in vitro effect on CYP3A,CYP3A [12]; in vitro data,direct and time‐dependent inhibitor and an inducer
same,pIC50,"CYP3A [12]; read-out: IC50 for CYP3A inhibition, in vitro",4.78
C[C@H]1O[C@@H](O[C@H]2[C@@H](O)C[C@H](O[C@H]3[C@@H](O)C[C@H](O[C@H]4CC[C@@]5(C)[C@H](CC[C@@H]6[C@@H]5C[C@@H](O)[C@]5(C)[C@@H](C7=CC(=O)OC7)CC[C@]65O)C4)O[C@@H]3C)O[C@@H]2C)C[C@H](O)[C@@H]1O [digoxin],effect on digoxin AUClast,P‐gp [3]; [13],no significant effect; also recorded: nonsignificant effect
same,effect on digoxin time to reach Cmax or shape of plasma concentration-time curve,P‐gp [3]; [13],no apparent effect
same,increase in digoxin AUClast,P‐gp [3]; [14],8%
same,increase in digoxin Cmax,P‐gp [3]; [14],32%
OCc1ncc2n1-c1ccc(Cl)cc1C(c1ccccc1F)=NC2 [1‐hydroxy midazolam],exposure to 1-hydroxy midazolam,CYP3A [5]; with or without concomitant pexidartinib,similar
Cc1ncc2n1-c1ccc(Cl)cc1C(c1ccccc1F)=NC2 [midazolam],decrease in midazolam AUClast,CYP3A [5]; [15],52%
same,decrease in midazolam Cmax,CYP3A [5]; [15],28%
same,decrease in midazolam AUClast,CYP3A [5]; [16],21%
same,decrease in midazolam Cmax,CYP3A [5]; [16],9%
CCCCNC(=O)NS(=O)(=O)c1ccc(CO)cc1 [4‐hydroxy tolbutamide],exposure to 4-hydroxy tolbutamide,CYP2C9 [7]; during pexidartinib coadministration,decrease
COc1ccc2[nH]c([S+]([O-])Cc3ncc(C)c(OC)c3C)nc2c1 (stereo not drawn) [omeprazole],decrease in Cmax for omeprazole,CYP2C19 [4]; [17],37%
same,omeprazole tmax,CYP2C19 [4]; [17],3 h
same,AUC(0-inf),"CYP2C19 [4]; human, plasma, oral, 40 mg",1740 ng·h/mL
same,AUC(0-t),"CYP2C19 [4]; human, plasma, oral, 40 mg",1730 ng·h/mL
same,tmax,"CYP2C19 [4]; human, plasma, oral, 40 mg",2.25 h
same,Cmax,"CYP2C19 [4]; human, plasma, po, 40 mg",908 ng/mL
same,AUCinf geometric LS mean ratio,CYP2C19 [4]; [18],83.2%
same,AUClast geometric LS mean ratio,CYP2C19 [4]; [18],77.4%
same,Cmax geometric LS mean ratio,CYP2C19 [4]; [18],62.8%
